The values below are quoted from earlier work in patent EP3074407B1, “COMPOUND AND METHOD FOR SELECTIVE RADIOLABELLING OF POLYPEPTIDES BY MEANS OF SOLID-PHASE SYNTHESIS” (Freie Universität Berlin, priority 2013, dated 2015).

The conditions of series [1]: PET, Menschen, Primaten und Nagetieren; cited from earlier work.
For series [2] the following is noted: literature (Breeman et al. 1996); cited from earlier work.

For the compound `FC(F)(F)c1nnnn1-c1ccc(OC[18F])c(CN[C@H]2CCCN[C@H]2c2ccccc2)c1` [18F-SPA-RQ], the “Aufnahme im Gehirn” value in series [1] is “hohe Aufnahme”.

For “[indium111-DTPA-Argl]substance P [In^111 markierten Substanz P-Agonisten]”, the “Durchlässigkeit der Blut-Hirn-Schranke” value in series [2] is “undurchlässig”.
